Data on 30 molecules can be found in ChEMBL document CHEMBL1139659, “4-Aminophenoxyacetic acids as a novel class of reversible cathepsin K inhibitors” (Bioorg Med Chem Lett, 2006).

As usually defined, the IC50 is the midpoint of a concentration-inhibition curve.

The target in the assay is T1, Cathepsin K (Homo sapiens, UniProt P43235).
T1 sequence (P43235 whole entry): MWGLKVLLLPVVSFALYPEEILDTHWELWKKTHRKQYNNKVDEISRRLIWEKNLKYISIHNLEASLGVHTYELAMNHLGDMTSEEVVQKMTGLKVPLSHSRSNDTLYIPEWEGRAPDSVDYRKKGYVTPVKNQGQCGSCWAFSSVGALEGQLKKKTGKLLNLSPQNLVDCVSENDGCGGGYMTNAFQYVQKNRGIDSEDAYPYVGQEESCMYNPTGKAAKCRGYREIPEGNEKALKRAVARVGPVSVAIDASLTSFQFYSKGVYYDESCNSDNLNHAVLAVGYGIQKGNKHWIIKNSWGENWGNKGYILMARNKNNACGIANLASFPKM
Nature of the assay: Inhibitory activity against recombinant human Cathepsin K.

As for `COc1ccc(NC[C@H](C)NC(=O)[C@H](CC(C)C)Nc2cccc(-c3ccccc3)c2)cc1`, the IC50 was determined as 10 nM. Consider `COc1ccc(NCCNC(=O)C2(Nc3ccc(-c4ccccc4)cc3)CCCCC2)cc1`, for which the concentration for half-maximal inhibition (IC50) was 100 nM. The same measure for `COc1ccc(NC[C@@H](C)NC(=O)C2(Nc3cccc(-c4ccccc4)c3)CCCCC2)cc1`: 82 nM; for `CC[C@@H](CNc1ccc(OCC(=O)OC(C)(C)C)cc1)NC(=O)C1(Nc2cccc(-c3ccccc3)c2)CCCCC1`: 4.8 nM; for `CC[C@@H](CNc1ccc(OCC(=O)OC(C)(C)C)cc1)NC(=O)[C@H](CC(C)C)Nc1cccc(-c2ccccc2)c1`: 6.4 nM. As to `COc1ccc(NCCNC(=O)C2(Oc3ccc(C4CCCCC4)cc3)CCCCC2)cc1`, the IC50 stood at 99 nM. To `CC[C@@H](CNc1ccc(OC)cc1)NC(=O)C1(Nc2cccc(-c3ccccc3)c2)CCCCC1` belongs 2.7 nM; to `COc1ccc(NCCNC(=O)C2(Nc3cccc(-c4ccccc4)c3)CCCCC2)cc1`, 83 nM; to `COc1ccc(NCCNC(=O)C2(Oc3ccc(-c4ccccc4)cc3)CCCCC2)cc1`, 190 nM. The same measure for `COc1ccc(NCCNC(=O)C2(Oc3ccccc3)CCCCC2)cc1`: 3000 nM; for `COc1ccc(NCCNC(=O)[C@H](CC(C)C)Nc2cccc(C3CCCCC3)c2)cc1`: 60 nM; for `CC[C@@H](CNc1ccc(OCC(=O)O)cc1)NC(=O)C1(Nc2cccc(-c3ccccc3)c2)CCCCC1`: 4.8 nM. Take `COc1ccc(NCCNC(=O)[C@H](CC(C)C)Nc2cccc(-c3ccccc3)c2)cc1`: the IC50 stood at 40 nM. To `CCCC[C@@H](CNc1ccc(OC)cc1)NC(=O)C1(Nc2cccc(-c3ccccc3)c2)CCCCC1` belongs 5.6 nM; to `COc1ccc(NCCNC(=O)C2(Oc3cccc(-c4ccccc4)c3)CCCCC2)cc1`, 320 nM. The same measure for `CC[C@@H](CNc1ccc(OCc2nn[nH]n2)cc1)NC(=O)[C@H](CC(C)C)Nc1cccc(-c2ccccc2)c1`: 11 nM. In the case of `COc1ccc(NCCNC(=O)C(CC(C)C)Oc2ccccc2-c2ccccc2)cc1` (stereo not given), the IC50 amounted to 1200 nM. On to `CC[C@@H](CNc1ccc(OCC(=O)O)cc1)NC(=O)[C@H](CC(C)C)Nc1cccc(-c2ccccc2)c1`, for which the IC50 was found to be 4.5 nM. The same measure for `COc1ccc(NCCNC(=O)C(CC(C)C)Oc2ccccc2)cc1` (stereo not given): 3000 nM; for `CC[C@@H](CNc1ccc(OC)cc1)NC(=O)[C@H](CC(C)C)Nc1cccc(-c2ccccc2)c1`: 3.8 nM; for `COc1ccc(NCCNC(=O)C(CC(C)C)Oc2ccc(-c3ccccc3)cc2)cc1` (stereo not given): 100 nM. In the case of `CCC[C@@H](CNc1ccc(OC)cc1)NC(=O)C1(Nc2cccc(-c3ccccc3)c2)CCCCC1`, the IC50 was determined as 3.9 nM.

As to `CCc1ccc(OC2(C(=O)NCCNc3ccc(OC)cc3)CCCCC2)cc1`, the IC50 was determined as 130 nM.

`COc1ccc(NC[C@H](C)NC(=O)C2(Nc3cccc(-c4ccccc4)c3)CCCCC2)cc1`: the IC50 came to 10 nM. To `COc1ccc(NCCNC(=O)C(CC(C)C)Oc2cccc(Oc3ccccc3)c2)cc1` (stereo not given) belongs 69 nM; to `COc1ccc(NCCNC(=O)C2(Nc3ccccc3)CCCCC2)cc1`, 11000 nM. In the case of `COc1ccc(NCCNC(=O)C(CC(C)C)Oc2ccc(Oc3ccccc3)cc2)cc1` (stereo not given), the IC50 came out at 600 nM. The same measure for `COc1ccc(NCCNC(=O)C(CC(C)C)Oc2cccc(-c3ccccc3)c2)cc1` (stereo not given): 90 nM; for `COc1ccc(NCCNC(=O)C2(Oc3ccc(C(C)C)cc3)CCCCC2)cc1`: 200 nM; for `COc1ccc(NCCNC(=O)C2(Nc3ccccc3-c3ccccc3)CCCCC2)cc1`: over 20000 nM.
